Values quoted from earlier work in patent publication US20130039995A1, “DERMATOLOGICAL COMPOSITIONS COMPRISING AT LEAST ONE REINOID COMPOUND, AN ANTI-IRRITANT COMPOUND AND BENZOYL PEROXIDE” (Galderma Research & Development, priority 2007, published 2013).

O=C(OOC(=O)c1ccccc1)c1ccccc1 [benzoyl peroxide]
degradation of benzoyl peroxide in solution (in solution in ethanol, propylene glycol and mixtures of PEG 400 and water, depends on type of solvent and its concentration): degrades more or less rapidly | degradation of benzoyl peroxide in suspension on storage (in suspension (disperse form) in water and in propylene glycol, after 90 days of storage): not degraded
